We go through five compounds from patent US4771043A, “Steroidic aromatase inhibitors” (Farmitalia Carlo Erba, S.p.A., priority 1985, dated 1988).

For data set [1] the following is noted: women, R. C. Coombes et al., Lancet II, 1237, 1984; cited from earlier work.
In data set [2] the test system is rat ovarian aromatase. In words: Inhibition of rat ovarian aromatase in vivo (PMSG-treated adult female rats, oral dosing, ovarian microsomes assayed 24 hours later). To be noted: for % AROMATASE INHIBITION: rat ovarian microsomes 24 hours after dosing, versus vehicle treated group. The protocol:
(§1) Aromatase inhibition by the compounds of the present invention was determined both in vitro (human placental aromatase), and in vivo (ovarian aromatase activity) in rats.
adult female rats were twice treated subcutaneously with 100 I.U. pregnant mares' serum gonadotropin (PMSG) at 4 days' interval, in order to increase ovarian aromatase activity, according to Brodie procedure [A. M. H. Brodie et al, Steroids 38, 693, 1981]. Three days after the second PMSG treatment, groups of 6 animals each were given orally the vehicle (0.5% methocel) or the inhibitor at the dose reported in the following table. Animals were killed 24 hours later, microsomes were isolated from ovaries and their aromatase activity determined using a method similar to that described above for the evaluation of the in vitro activity. The incubation were carried out for 30 minutes in 1 ml incubation volume containing 0.1 mg of microsomal proteins, 100 nM 4-[^3 H]androstenedione and 100 μM NADPH.
% inhibition of control aromatase activity was calculated.

In data set [3] the test system is human placental aromatase. Briefly: Aromatase inhibition in vitro (human placental microsomes, 3H2O release from 4-[1β,2β-3H]androstene-3,17-dione). In kind it is biochemical. The note with it: comparison with e.g. 4-OH-A. How it is done: as §1
Aromatase inhibition in vitro was determined as follows: the enzyme system was isolated from the microsomal fraction of human placental tissue according to standard procedure. The assay of Thompson and Siiteri [E. A. Thompson and P. K. Siiteri, J. Biol. Chem. 249, 5364, 1974] which determines the rate of aromatization as measured by the liberation of ^3 H2 O from 4-[1β,2β-^3 H]androstene-3,17-dione was used. All incubations were carried out in a shaking water bath at 37° C. in air in 10 mM potassium phosphate buffer, pH 7.5, which contained 100 mM KCl, 1 mM EDTA and 1 mM dithiothreitol. The experiments were carried out in 1 ml incubation volume containing 50 nM 4-[^3 H]androstenedione, various concentrations of the inhibitors, 100 μM NADPH and 0.05 mg of microsomal proteins. After 15 minutes of incubation the reaction was stopped by the addition of chloroform (5 ml). After centrifugation at 1500×g for 5 minutes, aliquots (0.5 ml) were removed from the water phase for determination of ^3 H2 O formed. […] Aromatase inhibition in vivo was determined in rats by the following procedure: […]

Structures are written as SMILES.

In the case of `C[C@]12CCC(=O)C(O)=C1CC[C@@H]1[C@@H]2CC[C@]2(C)C(=O)CC[C@@H]12` [4-OH-A, 4-hydroxyandrosta-4-ene-3,17-dione, reference compound], the “conjugation after oral administration (in words)” value in data set [1] is “extensively conjugated after oral administration”. Besides, the “% AROMATASE INHIBITION” value was 7% in data set [2] (30 mg/kg p.o.) and 21% in data set [2] (100 mg/kg p.o.). In data set [2] (100 mg/kg), the “effectiveness in vivo by oral route (in words)” value (“effectiveness in vivo” below) is “ineffective”.

Consider `C[C@]12C=CC(=O)C=C1[C@@H](N=[N+]=[N-])C[C@@H]1[C@@H]2CC[C@]2(C)C(=O)CC[C@@H]12` [FCE 24403, 6α-azido androsta-1,4-diene-3,17-dione], for which the “% AROMATASE INHIBITION” value in data set [2] (10 mg/kg p.o.) turned out to be 81%; in data set [2] (30 mg/kg p.o.), 89%. Also, the “effectiveness in vivo” value in data set [2] (10 mg/kg) was “very effective”. Moreover, in data set [3], the “in vitro aromatase inhibiting potency compared with reference compounds (in words)” value was “less potent in vitro than, e.g., 4-OH-A”.

On to `C[C@]12C=CC(=O)C=C1[C@@H](N)C[C@@H]1[C@@H]2CC[C@]2(C)C(=O)CC[C@@H]12` [FCE 24968, 6α-aminoandrosta-1,4-diene-3,17-dione], for which the “% AROMATASE INHIBITION” value in data set [2] (10 mg/kg p.o.) is on record as 53%; in data set [2] (30 mg/kg p.o.), 71%. Besides, the “effectiveness in vivo” value in data set [2] (10 mg/kg) was “very effective”. The “in vitro aromatase inhibiting potency compared with reference compounds (in words)” value in data set [3] is listed as “less potent in vitro than, e.g., 4-OH-A”.

As to `C[C@]12C=CC(=O)C=C1CC[C@@H]1[C@@H]2CC[C@]2(C)C(=O)CC[C@@H]12` [androsta-1,4-diene-3,17-dione, reference compound], in data set [2] (30 mg/kg p.o.), the “% AROMATASE INHIBITION” value is 37%.

Take `C[C@]12C=CC(=O)C=C1CC[C@@H]1[C@@H]2CC[C@]2(C)OC(=O)CC[C@@H]12` [testolactone, D-homo-17a-oxaandrosta-1,4-diene-3,17-dione, reference compound]: the “% AROMATASE INHIBITION” value in data set [2] (30 mg/kg p.o.) stood at 2%.
